The nature of series [1]: Inhibition of calcium oxalate crystal formation assessed as change of shift in titration end point by conductometric titration. The series is classed as functional.
The nature of series [2]: Induction of calcium oxalate dissolution assessed as increase in calcium concentration after 5 days by flame photometry relative to untreated control. The series is classed as physicochemical. The settings on record: 120 h.
A short description of series [3]: Induction of surgically removed human kidney stone dissolution assessed as increase in calcium concentration after 5 days by flame photometry relative to untreated control. The series is classed as functional.
Series [4] deals with A549. Put plainly: Cytotoxicity against human A549 cells at 500 ug/ml. The series is classed as cell-based.
Series [5] relates to L929. Put plainly: Cytotoxicity against mouse L929 cells at 500 ug/ml. The series is classed as cell-based.

Here are results for eight compounds from ChEMBL document CHEMBL1154836, “Synthesis of glycoside derivatives of hydroxyanthraquinone with ability to dissolve and inhibit formation of crystals of calcium oxalate. Potential compounds in kidney stone therapy” (Eur J Med Chem, 2010).

Turning to `O=C1c2ccc(O)c(O)c2C(=O)c2c(O)ccc(O)c21` [QUINALIZARIN], the Activity in series [1] turned out to be 90 µL; in series [2], 1324%; in series [3], 4167%.

For the compound `O=C1c2ccccc2C(=O)c2c1ccc(O)c2O` [ATHRAQUINONES A], the Activity was 40 µL in series [1]; 246% in series [2]; 717% in series [3]; “Toxic” in series [4]; “Toxic” in series [5].

For `O=C1c2ccccc2C(=O)c2c1ccc(O[C@@H]1O[C@H](CO)[C@H](O)[C@H](O)[C@H]1O)c2O`, the Activity in series [1] is 70 µL; in series [2], 432%; in series [3], 1500%; in series [4], “Non-toxic”; in series [5] it was “Non-toxic”.

As to `O=C1c2ccccc2C(=O)c2c(O)ccc(O)c21` [QUINIZARIN], the Activity is 30 µL in series [1]; 205% in series [2]; 833% in series [3]; “Toxic” in series [4]; “Toxic” in series [5].

`O=C1c2ccccc2C(=O)c2c(O[C@@H]3O[C@H](CO)[C@@H](O)[C@H](O)[C@H]3O)ccc(O)c21`: the Activity is 60 µL in series [1]; 541% in series [2]; 2000% in series [3]; “Non-toxic” in series [4]; “Non-toxic” in series [5].

For `O=C1c2ccc(O[C@@H]3O[C@H](CO)[C@@H](O)[C@H](O)[C@H]3O)c(O)c2C(=O)c2c(O)ccc(O)c21`, the Activity came out at 180 µL in series [1], 1513% in series [2] and 4833% in series [3].

For `O=C1c2ccc(O[C@@H]3O[C@H](CO)[C@H](O)[C@H](O)[C@H]3O)c(O)c2C(=O)c2c(O)ccc(O)c21`, the Activity in series [1] was determined as 170 µL; in series [2], 513%; in series [3] it was 1667%.

As for `O=C1c2ccccc2C(=O)c2c1ccc(O[C@@H]1O[C@H](CO)[C@@H](O)[C@H](O)[C@H]1O)c2O`, the Activity in series [1] is 80 µL; in series [2] it was 595%; in series [3] it was 1583%; in series [4], “Non-toxic”; in series [5], “Non-toxic”.
